According to patent publication US10550114B2, “Kinase inhibitors and their use in cancer therapy” (TECHNISCHE UNIVERSITÄT DORTMUND, priority 2015, dated 2020):
Where two headings read alike, the source gives them in different places. Blank lines part the entries; values can stand above or below the molecule they belong to.

Tests used:
[1] = Maximum tolerated dose in mice; conditions: RjOrl:SWISS, mouse, in vivo, ip, PBS/PEG200 (60:40)
BT474 cells = assay: Western blot in breast cancer cells; type: cell-based, human; conditions: BT474, 24 hours
Procedure: (§1) Human ductal breast carcinoma cells (BT474) and human prostate adenocarcinoma cells (PC-3) were purchased from the ATCC (Bethesda, Md., USA) and were cultured in RPMI 1640 medium (Life Technologies, Germany) supplemented with 10% (v/v) fetal calf serum (FCS; Biochrom, Berlin, Germany) and maintained in a humidified incubator at 37° C. and 5% CO2 (C200, Labotect Incubator, Göttingen, Germany).
(§2) BT474 and PC-3 cells were lysed for 10 min at 95° C. in 62.5 mM Tris-HCl (pH 6.8), 2% (w/v) SDS, 10% (v/v) glycerol, 80 mM DTT, and 0.01% (w/v) bromophenol blue (350.000 cells per 100 μL lysis buffer). Proteins were separated by SDS-PAGE and blotted onto PVDF-membranes (Roth, Karlsruhe, Germany) using Fastblot according to manufacturer's manual (B44, Biometra, Goettingen, Germany). After blocking with 5% (w/v) nonfat dry milk membranes were incubated at 4° C. over night with the respective primary antibody (1:20.000 for β-actin, 1:1000 for all other antibodies). After washing, the membranes were incubated for 1 h at room temperature with the secondary antibody (anti-IgG-HRP 1:2000, CST, Frankfurt, Germany) washed again and monitored by chemiluminescence imaging using FUSION Solo (peqlab, Erlangen, Germany) and appropriate ECL Prime Western blotting detection reagent according to the manufacturer's protocol (GE Healthcare/Amersham-Biosciences, Freiburg, Germany). […]

[2] = Pharmacokinetic profiling in mice (plasma, LC-MS/MS); conditions: for bioavailability: CD1, mouse, in vivo
Procedure: EDTA was added to plasma in order to prevent blood from coagulation. The compound concentrations in the particular plasma samples were determined by LC-MS/MS, as follows:
Samples and blanks were prepared by adding 2.5 μL blank DMSO and 80 μL of ice-cold acetonitrile containing the internal standard (Griseofulvin, 1 μM) to 20 μl plasma followed by centrifugation at 13000 rpm (4° C.) for 10 min. 65 μL of the supernatant were diluted with 65 μL of LC-MS grade water. Samples were filtered (Millipore MSRLN0450 hydrophil) and subjected to LC-MS measurement. […] 2.5 μL of the corresponding DMSO stock solution were added to 20 μL of blank plasma followed by the addition of 80 μL of ice-cold acetonitrile containing the internal-standard. The samples were centrifuged for 10 min and 4° C. at 13000 rpm. 65 μL of the supernatant were diluted with 65 μL of LC-MS grade water and subjected to LC-MS analysis. A set of 3 different QCs (n=3) was prepared by adding of 2.5 μL DMSO stock solution (5, 0.5 and 0.05 μM) to 20 μL of plasma. Samples were subsequently handled as described above. All samples were analyzed using a Shimadzu LC20ADXR Solvent Delivery Unit, a Shimadzu SIL30ACMP autosampler and a ABSciex Qtrap5500 LC-MS/MS system. Therefore, 2 μL of sample were injected and separated using an Agilent Poroshell C18, 2.7 μm column (2.1 mm×50 mm) at 60° C. starting at 5% of solvent B for 0.3 min followed by a gradient up to 100% of solvent B over 0.6 min (flow rate 1 mL/min) with 0.1% formic acid in water as solvent A and 0.1% formic acid in acetonitrile as solvent B. Data evaluation was performed using Analyst 1.6.2 Software (Sciex).

PC3 cells = assay: Western blot in prostate cancer cells; type: cell-based, human; conditions: PC3, 24 hours
Procedure: as §1, §2

MAP4K5 = MAP4K5 (Homo sapiens (Human), UniProt Q9Y4K4); assay: Z'LYTE kinase assay, SelectScreen panel; type: biochemical; conditions: 1 μM compound, apparent ATP KM
GIST-T1 cells = assay: Western blot in gastrointestinal stromal tumor cells; type: cell-based, human; conditions: GIST-T1, 24 hours
Procedure: For GIST-T1 cells protein lysates were prepared from cell line monolayers according to standard protocols as described in A. Duensing, F. Medeiros, B. McConarty, N. E. Joseph, D. Panigrahy, S. Singer, C. […] Protein concentrations were determined with the Bio-Rad Protein Assay (Bio-Rad Laboratories, Hercules, Calif.). Electrophoresis and immunoblotting were carried out as described in B. P. Rubin, S. Singer, C. Tsao, A. Duensing, M. L. Lux, R. Ruiz, M. K. Hibbard, C. J. Chen, S. Xiao, D. A. Tuveson, G. D. Demetri, C.
Controls were treated with dimethyl sulfoxide (DMSO).

[3] = target: T1, activated full-length wtAkt1 (Homo sapiens (Human), UniProt P31749); assay: Time-dependent activity-based screening; type: biochemical; conditions: incubation 10, 30, 60 or 300 minutes
[4] = target: T1, activated full-length wtAkt1; assay: Activity-based (HTRF) assay, manual dilution series; conditions: for higher concentration required for half-maximum inhibition of Akt1 versus alkenyl counterpart: 1b vs 1a, 2b vs 2a
Source text: OriginPro 9.1G software (OriginLab Corporation, Northhampton, Mass.) was used for data analysis and data was fit to a sigmoidal dose-response model using the following four-parameter logistic equation:
(§5) The potential influence of the reactive alkenyl group functioning as a Michael acceptor was further evaluated and the inhibitory potencies further assessed in activity-based studies utilizing activated full-length wtAkt1 (Millipore).

[5] = target: fluorescently labeled full-length Akt1 (Homo sapiens (Human), UniProt P31749, C296S/C310S/C344S/E49C); assay: iFLiK binding analysis; conditions: fluorophore-labeled Akt1 200 nM; n.r. = no response up to 100 μM
Procedure: Afterwards they were cloned into pREN4427-HIS-DEST vector and introduced into a baculovirus using the BacMagic Kit (Calbiochem) in Sf9 cells (Invitrogen). Protein expression, purification and labeling was performed according to standard protocols.
The final concentration of fluorophore-labeled recombinant Akt1 was 200 nM.

wild-type Akt1 [6] = target: T2, wild-type Akt1 (Homo sapiens (Human), UniProt P31749); assay: ESI-MS of compound-treated Akt1; type: binding; conditions: 2 molar equivalents, thirty minutes on ice, vs DMSO control
Procedure: Purified full-length wtAkt1 was thawed under cold water and diluted to a final concentration of 1 mg/mL in storage buffer (50 mM HEPES, 200 mM NaCl, 10% Glycerol, pH 7.4). […] Following incubation for thirty minutes on ice, the samples were analyzed by ESI-MS using an Agilent 1100 Series HPLC System connected to a ThermoFinnigan LTQ Linear Ion Trap mass spectrometer. […] During the complete experiment, a mass range of 700 to 2000 m/z was scanned and raw data was deconvoluted and analyzed with MagTran and mMass (Version 5.5.0) software.

[7] = target: T1, activated full-length wtAkt1; assay: Kinetic characterization by determination of kinact/Ki (time-dependent IC50); type: biochemical; conditions: incubation 1 to 120 minutes; manual dilution series
Procedure: (§3) Time-dependent IC50 measurements were performed with activated full-length Akt1 as described under “Biochemical assays”. Briefly, IC50 values were determined for twelve different incubation times and afterwards plotted versus accordingly. Data was analyzed according to literature procedure as described in B. F. Krippendorff, R. Neuhaus, P. Lienau, A. Reichel, W. Huisinga, J. Biomol. Screen.
(§4) Calculated IC50 values were plotted versus the incubation time and data was fit as described in the literature to determine kinact and Ki as described above.

Full-length wtAkt1 = Full-length wtAkt1 (Homo sapiens (Human), UniProt P31749); assay: ESI-MS/MS analysis after tryptic digest; type: binding; conditions: 2-fold molar excess
Procedure: Protoc. […] 3 μL of sample were loaded onto a pre-column cartridge and desalted for 5 min using 0.1% TFA in water as eluent at a flow rate of 30 μL/min. The samples were back-flushed from the pre-column to the nano-HPLC column during the whole analysis. […] During the complete gradient cycle, a typical TOP10 shot-gun proteomics method for the MS and MS/MS analysis was used. […] Biotechnol.

[8] = target: activated full-length Akt1 (Homo sapiens (Human), UniProt P31749); assay: Kinetic parameters (Ki, kinact), ECHO520 dilution series; type: biochemical; conditions: for kinact/KI: ECHO520
Procedure: as §3, §4

Akt1_E17K = Akt1_E17K (Homo sapiens (Human), UniProt P31749, E17K); assay: Activity-based assay, ECHO520 dilution series; type: biochemical; conditions: mutant Akt1_E17K
Source text: as §5

wild-type Akt1 [9] = target: T2, wild-type Akt1; assay: Activity-based assay, ECHO520 dilution series; type: biochemical
Source text: as §5

[10] = activated full-length wtAkt1, 120 pM, manual dilution series

Sequence of activated full-length Akt1 (P31749 whole entry): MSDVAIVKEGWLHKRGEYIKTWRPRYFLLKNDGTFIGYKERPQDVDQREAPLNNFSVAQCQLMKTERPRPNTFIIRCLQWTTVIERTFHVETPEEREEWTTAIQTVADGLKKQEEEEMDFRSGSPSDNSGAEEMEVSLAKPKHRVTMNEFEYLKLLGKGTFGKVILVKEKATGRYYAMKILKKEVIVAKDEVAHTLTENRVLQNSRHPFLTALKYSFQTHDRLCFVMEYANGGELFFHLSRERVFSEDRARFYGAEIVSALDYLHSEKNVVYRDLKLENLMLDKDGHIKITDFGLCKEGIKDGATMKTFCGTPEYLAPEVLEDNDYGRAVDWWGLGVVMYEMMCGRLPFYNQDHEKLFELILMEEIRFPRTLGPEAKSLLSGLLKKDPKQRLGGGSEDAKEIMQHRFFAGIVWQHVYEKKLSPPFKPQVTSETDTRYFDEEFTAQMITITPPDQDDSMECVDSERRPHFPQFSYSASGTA
T1 sequence (P31749 whole entry): as above
T2 sequence (P31749 whole entry): as above
Sequence of fluorescently labeled full-length Akt1 (P31749 whole entry E49C/C296S/C310S/C344S): as the sequence (P31749 whole entry) above, with E49C, C296S, C310S, C344S counted along it
Sequence of Akt1_E17K (P31749 whole entry E17K): as the sequence (P31749 whole entry) above, with E17K counted along it
Sequence of Full-length wtAkt1 (P31749 whole entry): as the sequence (P31749 whole entry) above
Sequence of MAP4K5 (Q9Y4K4 whole entry): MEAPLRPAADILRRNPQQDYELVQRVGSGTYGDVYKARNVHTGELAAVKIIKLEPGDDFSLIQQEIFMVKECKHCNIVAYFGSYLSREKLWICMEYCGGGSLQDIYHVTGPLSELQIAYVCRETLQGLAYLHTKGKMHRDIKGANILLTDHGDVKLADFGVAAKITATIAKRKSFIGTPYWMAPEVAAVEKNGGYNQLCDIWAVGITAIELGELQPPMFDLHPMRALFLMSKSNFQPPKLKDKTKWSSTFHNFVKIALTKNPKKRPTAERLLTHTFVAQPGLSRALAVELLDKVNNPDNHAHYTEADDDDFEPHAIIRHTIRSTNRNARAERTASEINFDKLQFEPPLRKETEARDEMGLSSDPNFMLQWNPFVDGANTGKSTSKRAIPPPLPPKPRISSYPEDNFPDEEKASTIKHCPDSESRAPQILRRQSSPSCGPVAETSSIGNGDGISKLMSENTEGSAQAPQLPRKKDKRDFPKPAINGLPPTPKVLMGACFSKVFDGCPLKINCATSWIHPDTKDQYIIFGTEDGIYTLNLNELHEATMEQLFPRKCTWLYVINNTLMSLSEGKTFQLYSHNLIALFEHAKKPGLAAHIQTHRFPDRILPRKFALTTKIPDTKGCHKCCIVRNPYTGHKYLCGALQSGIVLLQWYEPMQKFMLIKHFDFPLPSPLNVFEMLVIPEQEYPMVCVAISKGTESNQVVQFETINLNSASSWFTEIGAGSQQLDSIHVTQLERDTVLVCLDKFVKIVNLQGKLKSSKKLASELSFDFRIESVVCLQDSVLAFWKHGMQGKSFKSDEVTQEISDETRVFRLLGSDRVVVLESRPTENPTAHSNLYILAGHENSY

SMILES: C=CC(=O)Nc1ccc2[nH]c(=O)n(C3CCN(Cc4ccc(-c5nc6cc[nH]c(=O)c6cc5-c5ccccc5)cc4)CC3)c2c1 [Compound 1a, N-(2-oxo-3-(1-(4-(5-oxo-3-phenyl-5,6-dihydro-1,6-naphthyridin-2-yl)benzyl)piperidin-4-yl)-2,3-dihydro-1H-benzo[d]imidazol-5-yl) acrylamide]
MTD [1]: 20 mg/kg
phosphorylation of Akt1 substrate GSK3β (BT474 cells): decreased phosphorylation
pAkt1 (Thr308 and Ser473) level (BT474 cells; 0.01-10 μM): dose-dependent decreases of pAkt1
bioavailability ([2]; ip, 20 mg/kg): 47.7%
bioavailability ([2]; po, 20 mg/kg): 10.8%
maximum plasma concentration ([2]; i.p., 20 mg/kg): 1.15 µM
time of maximum plasma concentration ([2]; i.p., 20 mg/kg): 45 min
maximum plasma concentration ([2]; i.v., 2 mg/kg): 1.05 µM
time of maximum plasma concentration ([2]; i.v., 2 mg/kg): immediately after injection
maximum plasma concentration ([2]; p.o., 20 mg/kg): 0.62 µM
time of maximum plasma concentration ([2]; p.o., 20 mg/kg): 15 min
phosphorylation of Akt1 substrate GSK3β (PC3 cells): decreased phosphorylation
pAkt1 (Thr308 and Ser473) level (PC3 cells; 0.01-10 μM): dose-dependent decreases of pAkt1
inhibition at 1 µM (MAP4K5): 37%
phosphorylation of downstream targets S6 and 4EBP1 (GIST-T1 cells): decreasing phosphorylation
cellular pAkt1 levels (GIST-T1 cells; 0.001-0.1 μM): reduces cellular pAkt1 levels at low nanomolar concentrations

SMILES: CCC(=O)Nc1ccc2[nH]c(=O)n(C3CCN(Cc4ccc(-c5nc6cc[nH]c(=O)c6cc5-c5ccccc5)cc4)CC3)c2c1 [Compound 1b, N-(2-OXO-3-(1-(4-(5-OXO-3-PHENYL-5,6-DIHYDRO-1,6-NAPHTHYRIDIN-2-YL)BENZYL)PIPERIDIN-4-YL)-2,3-DIHYDRO-1H-BENZO[D]IMIDAZOL-5-YL) PROPIONAMIDE]
time dependence of dose-response curves [3]: No differences were observed
higher concentration required for half-maximum inhibition of Akt1 versus alkenyl counterpart [4]: 10 fold
IC50 [4, 10]: 7.5 ± 2 nM
Kd [5]: 62 ± 12 nM

mass increase of Akt1 (single labeled) (wild-type Akt1 [6]): 572 Da
kinact/KI [7]: 2300 ± 300 M⁻¹ s⁻¹
IC50 [4]: 372 ± 48 nM
IC50 [4, 10]: 372 ± 48 nM
Kd [5]: 795 ± 176 nM
SMILES: C=CC(=O)Nc1cccc(-c2cn(C3CCN(Cc4ccc(-c5nc6ccccn6c5-c5ccccc5)cc4)CC3)nn2)c1 [Compound 2a, N-[3-(1-{1-[4-(3-Phenylimidazo[1,2-a]pyridin-2-yl)benzyl]piperidin-4-yl}-1H-1,2,3-triazol-4-yl)phenyl]acrylamide]
covalently modified residues (Full-length wtAkt1): covalently bind to Akt1 at Cys296 and Cys310

IC50 [4]: 992 ± 328 nM
higher concentration required for half-maximum inhibition of Akt1 versus alkenyl counterpart [4]: 4 fold
Kd [5]: 797 ± 180 nM
SMILES: CCC(=O)Nc1cccc(-c2cn(C3CCN(Cc4ccc(-c5nc6ccccn6c5-c5ccccc5)cc4)CC3)nn2)c1 [Compound 2b, N-[3-(1-{1-[4-(3-Phenylimidazo[1,2-a]pyridin-2-yl)benzyl]piperidin-4-yl}-1H-1,2,3-triazol-4-yl)phenyl]propionamide]

IC50 [4, 10]: 18.2 ± 13.3 nM
Kd [5]: 79 ± 21 nM
SMILES: CCC(=O)Nc1cccc(C(=O)NC2CCN(Cc3ccc(-c4nc5cc[nH]c(=O)c5cc4-c4ccccc4)cc3)CC2)c1 [Compound 27]

kinact [8]: 0.00102 s⁻¹
kinact/KI [8]: 51000 ± 10000 M⁻¹ s⁻¹
SMILES: CN(C)C/C=C/C(=O)Nc1ccc2[nH]c(=O)n(C3CCN(Cc4ccc(-c5nc6cc[nH]c(=O)c6cc5-c5ccccc5)cc4)CC3)c2c1 [Compound 36]

kinact [8]: 0.00182 s⁻¹
kinact/KI [8]: 41000 ± 9000 M⁻¹ s⁻¹
SMILES: N#C/C(=C\C1CC1)C(=O)Nc1cccc(C(=O)NC2CCN(Cc3ccc(-c4nc5cc[nH]c(=O)c5cc4-c4ccccc4)cc3)CC2)c1 [Compound 45]

SMILES: C=CC(=O)Nc1ccc2c(c1)n(C1CCN(Cc3ccc(-c4nc5cc[nH]c(=O)c5cc4-c4ccccc4)cc3)CC1)c(=O)n2C [Compound 46]
Ki [8]: 1 to 18.9 nM
kinact [8]: 0.00202 s⁻¹
kinact/KI [8]: 190000 ± 25000 M⁻¹ s⁻¹

IC50 (Akt1_E17K): 2900 ± 137 nM
IC50 (wild-type Akt1 [9]): 21.3 ± 1.8 nM
SMILES: C=CC(=O)Nc1ccc(C(=O)NC2CCN(Cc3ccc(-c4nc5cc[nH]c(=O)c5cc4-c4ccccc4)cc3)CC2)c(F)c1 [Compound 47]

IC50 (Akt1_E17K): 397 ± 172 nM
IC50 (wild-type Akt1 [9]): 8.1 ± 0.4 nM
SMILES: C=CC(=O)Nc1ccc(C(=O)NC2CCN(Cc3ccc(-c4nc5cc[nH]c(=O)c5cc4-c4ccccc4)cc3)CC2)s1 [Compound 48]

time dependence of dose-response curves [3]: No differences were observed
SMILES: NC1(c2ccc(-c3nc4ccn5c(=O)[nH]nc5c4cc3-c3ccccc3)cc2)CCC1 [MK-2206, reference compound]
